Measurements: US9232799B2, “N-[(het)arylethyl)] pyrazole(thio)carboxamides and their heterosubstituted analogues” (BAYER INTELLECTUAL PROPERTY GMBH, priority 2010, dated 2016)

Tests used:
Fusarium graminearum = experiment: microbe, parasite or virus in culture; assay type: cell-based; conditions: 50 μM
aflatoxines production = experiment: microbe, parasite or virus in culture; assay type: cell-based, Aspergillus parasiticus; conditions: 50 μM
Alternaria solani = experiment: In vivo preventive test on Alternaria solani (tomato); conditions: 500 ppm of active ingredient, evaluated 7 days after inoculation
Description: One day after this treatment, the plants are inoculated with an aqueous spore suspension of Alternaria solani.

[1] = logP by HPLC on reversed-phase column (C 18), EEC Directive 79/831 Annex V.A8; assay type: physicochemical
Experimental: In table 1, the logP values were determined in accordance with EEC Directive 79/831 Annex V.A8 by HPLC (High Performance Liquid Chromatography) on a reversed-phase column (C 18), using the method described below: Temperature: 40° C.; […]

Pyrenophora teres = experiment: In vivo preventive test on Pyrenophora teres (barley); conditions: 500 ppm of active ingredient, evaluated 7-9 days after inoculation
Description: One day after this treatment, the plants are inoculated with an aqueous spore suspension of Pyrenophora teres.

## CN(CC(=O)c1ccc(Cl)cc1)C(=O)c1c(C(F)F)nn(C)c1F [Example 61]
Fusarium graminearum
  % Inhibition of fungal growth at 50 μM: 84%
Aflatoxines production
  % Inhibition of Aflatoxin at 50 μM: 100%
Alternaria solani
  Efficacy: 90%
[1]
  logP: 2.53

## Cn1nc(C(F)F)c(C(=O)NC[Si](C)(C)c2ccccc2)c1F [Example 228]
Fusarium graminearum
  % Inhibition of fungal growth at 50 μM: 93%
Aflatoxines production
  % Inhibition of Aflatoxin at 50 μM: 100%
Pyrenophora teres
  Efficacy: 100%
Alternaria solani
  Efficacy: 100%
[1]
  logP: 3.13

## CN(CCc1ccccc1C(F)(F)F)C(=O)c1c(C(F)F)nn(C)c1F [Example 123]
Fusarium graminearum
  % Inhibition of fungal growth at 50 μM: 100%
Aflatoxines production
  % Inhibition of Aflatoxin at 50 μM: 100%
Pyrenophora teres
  Efficacy: 95%
Alternaria solani
  Efficacy: 100%
[1]
  logP: 3.00

## Cn1nc(C(F)F)c(C(=O)NCCc2ccccc2C(F)(F)F)c1F [Example 121]
Fusarium graminearum
  % Inhibition of fungal growth at 50 μM: 100%
Aflatoxines production
  % Inhibition of Aflatoxin at 50 μM: 100%
Pyrenophora teres
  Efficacy: 100%
Alternaria solani
  Efficacy: 95%
[1]
  logP: 2.92

## Cn1nc(C(F)F)c(C(=O)NC[Si](C)(C)c2cccc(Cl)c2)c1Cl [Example 236]
Fusarium graminearum
  % Inhibition of fungal growth at 50 μM: 84%
Aflatoxines production
  % Inhibition of Aflatoxin at 50 μM: 99%
Pyrenophora teres
  Efficacy: 100%
Alternaria solani
  Efficacy: 100%
[1]
  logP: 3.71

## CN(CCc1cc(Cl)ccc1Cl)C(=O)c1c(C(F)F)nn(C)c1F [Example 94]
Fusarium graminearum
  % Inhibition of fungal growth at 50 μM: 100%
Aflatoxines production
  % Inhibition of Aflatoxin at 50 μM: 100%
Pyrenophora teres
  Efficacy: 100%
Alternaria solani
  Efficacy: 100%
[1]
  logP: 3.17

## CC(CN(C(=O)c1c(C(F)F)nn(C)c1Cl)C1CC1)c1ccccc1 (stereo not drawn) [Example 14]
Fusarium graminearum
  % Inhibition of fungal growth at 50 μM: 100%
Aflatoxines production
  % Inhibition of Aflatoxin at 50 μM: 100%
Pyrenophora teres
  Efficacy: 100%
Alternaria solani
  Efficacy: 100%
[1]
  logP: 3.31

## Cn1nc(C(F)F)c(C(=O)NCC(c2cccs2)C(F)(F)F)c1Cl (stereo not drawn) [Example 162]
Fusarium graminearum
  % Inhibition of fungal growth at 50 μM: 80%
Aflatoxines production
  % Inhibition of Aflatoxin at 50 μM: 98%
Pyrenophora teres
  Efficacy: 95%
Alternaria solani
  Efficacy: 100%
[1]
  logP: 2.92

## CC(CNC(=O)c1c(C(F)F)nn(C)c1F)c1ccccc1Cl (stereo not drawn) [Example 39]
Fusarium graminearum
  % Inhibition of fungal growth at 50 μM: 100%
Aflatoxines production
  % Inhibition of Aflatoxin at 50 μM: 100%
Pyrenophora teres
  Efficacy: 100%
Alternaria solani
  Efficacy: 100%
[1]
  logP: 2.94

## CC(Cc1ccccc1F)N(C(=O)c1c(C(F)F)nn(C)c1Cl)C1CC1 (stereo not drawn) [Example 20]
Fusarium graminearum
  % Inhibition of fungal growth at 50 μM: 69%
Aflatoxines production
  % Inhibition of Aflatoxin at 50 μM: 86%
Pyrenophora teres
  Efficacy: 100%
Alternaria solani
  Efficacy: 95%
[1]
  logP: 3.52

## CC(C)C(CNC(=O)c1c(C(F)F)nn(C)c1Cl)c1ccc(Cl)cc1 (stereo not drawn) [Example 59]
Fusarium graminearum
  % Inhibition of fungal growth at 50 μM: 83%
Aflatoxines production
  % Inhibition of Aflatoxin at 50 μM: 100%
Pyrenophora teres
  Efficacy: 100%
Alternaria solani
  Efficacy: 100%
[1]
  logP: 3.94

## Cc1c(CCNC(=O)c2c(C(F)F)nn(C)c2F)sc2ccccc12 [Example 171]
Fusarium graminearum
  % Inhibition of fungal growth at 50 μM: 93%
Aflatoxines production
  % Inhibition of Aflatoxin at 50 μM: 100%
Pyrenophora teres
  Efficacy: 100%
Alternaria solani
  Efficacy: 100%
[1]
  logP: 3.27

## Cn1nc(C(F)F)c(C(=O)NCCc2ccccc2Cl)c1F [Example 32]
Fusarium graminearum
  % Inhibition of fungal growth at 50 μM: 99%
Aflatoxines production
  % Inhibition of Aflatoxin at 50 μM: 100%
Pyrenophora teres
  Efficacy: 100%
Alternaria solani
  Efficacy: 95%
[1]
  logP: 2.69

## Cn1nc(C(F)F)c(C(=O)NCC(c2cccs2)C(F)(F)F)c1F (stereo not drawn) [Example 161]
Fusarium graminearum
  % Inhibition of fungal growth at 50 μM: 85%
Aflatoxines production
  % Inhibition of Aflatoxin at 50 μM: 100%
Pyrenophora teres
  Efficacy: 100%
Alternaria solani
  Efficacy: 95%
[1]
  logP: 2.75

## CN(CCc1ccccc1Cl)C(=O)c1c(C(F)F)nn(C)c1Cl [Example 36]
Fusarium graminearum
  % Inhibition of fungal growth at 50 μM: 94%
Aflatoxines production
  % Inhibition of Aflatoxin at 50 μM: 100%
Pyrenophora teres
  Efficacy: 95%
Alternaria solani
  Efficacy: 100%
[1]
  logP: 2.92

## CC(CNC(=O)c1c(C(F)F)nn(C)c1F)c1c(F)cccc1F (stereo not drawn) [Example 30]
Fusarium graminearum
  % Inhibition of fungal growth at 50 μM: 98%
Aflatoxines production
  % Inhibition of Aflatoxin at 50 μM: 100%
Pyrenophora teres
  Efficacy: 100%
Alternaria solani
  Efficacy: 100%
[1]
  logP: 2.78

## Cc1ccsc1CCNC(=O)c1c(C(F)F)nn(C)c1Cl [Example 163]
Fusarium graminearum
  % Inhibition of fungal growth at 50 μM: 80%
Aflatoxines production
  % Inhibition of Aflatoxin at 50 μM: 98%
Pyrenophora teres
  Efficacy: 95%
Alternaria solani
  Efficacy: 90%
[1]
  logP: 2.68

## Cn1nc(C(F)F)c(C(=O)NCC(C)(C)c2cc(Cl)ccc2Cl)c1F [Example 100]
Fusarium graminearum
  % Inhibition of fungal growth at 50 μM: 85%
Aflatoxines production
  % Inhibition of Aflatoxin at 50 μM: 99%
Pyrenophora teres
  Efficacy: 94%
Alternaria solani
  Efficacy: 95%
[1]
  logP: 3.68

## Cn1nc(C(F)F)c(C(=O)NCCc2ccc(Oc3ccccc3)cc2)c1F [Example 152]
Fusarium graminearum
  % Inhibition of fungal growth at 50 μM: 82%
Aflatoxines production
  % Inhibition of Aflatoxin at 50 μM: 100%
Pyrenophora teres
  Efficacy: 100%
Alternaria solani
  Efficacy: 95%
[1]
  logP: 3.41

## Cn1nc(C(F)F)c(C(=O)NCCc2cccc(Cl)c2)c1F [Example 47]
Fusarium graminearum
  % Inhibition of fungal growth at 50 μM: 100%
Aflatoxines production
  % Inhibition of Aflatoxin at 50 μM: 100%
Pyrenophora teres
  Efficacy: 100%
Alternaria solani
  Efficacy: 100%
[1]
  logP: 2.75
